pKd: −log10 of the molar value. Entries after “also recorded” stand apart in the source; their conditions may differ. Each block holds one compound with its values, some of them ahead of it.
Tests used:
[1] = biological target: NR1s1s2 (ligand binding domains of the NMDA receptor), glycine site; details: radioligand parameter stated in assay method; obtained from Sigma Aldrich; cited from earlier work
[2] = MDR1-MDCKII permeability assay Papp(AB); assay type: in vitro ADME; details: dog, MDCK-MDR1, prodrug compounds, A to B, 60-minute incubation at 37° C., pH 7.4
Method: MDR1-MDCKII Permeability Assay Papp(AB)
MDR1-MDCKII cells (obtained from Piet Borst at the Netherlands Cancer Institute) were seeded onto […] (PET) in 96-well BD insert systems at 2.5×10^5 cells/mL until to 4-7 days for confluent cell monolayer formation.
Test compounds were diluted with the transport buffer (HBSS with 10 mM HEPES, added 1% BSA, pH 7.4) from DMSO stock solution to a concentration of 0.5 μM (DMSO: 0.4%) and applied to the apical or basolateral side of the cell monolayer. Permeation of the test compounds from A to B direction or B to A direction was determined in triplicate over a 60-minute incubation at 37° C. and 5% CO2 with a relative humidity of 95%. In addition, the efflux ratio of each compound was also determined. Test and reference compounds were quantified by LC/MS/MS analysis based on the peak area ratio of analyte/IS.
Reference compounds: Fenoterol (conc: 2 μM) was used as low permeability marker and Propranolol (conc: 2 μM) was used as high permeability marker in A to B Permeability, furthermore was bi-directional permeability of a P-glycoprotein substrate (digoxin) included.
The apparent permeability coefficient Papp (cm/s) was calculated using the equation: Papp=(dCr/dt)×Vr/(A×C0) (1) Where dCr/dt is the cumulative concentration of compound in the receiver chamber as a function of time (μM/s); Vr is the solution volume in the receiver chamber (0.05 mL on the apical side; 0.25 mL on the basolateral side); A is the surface area for the transport, i.e. 0.0804 cm^2 for the area of the monolayer; C0 is the initial concentration in the donor chamber (μM).
The efflux was calculated using the equation: Efflux ratio=Papp(BA)/Papp(AB) (2)
The mass balance (Recovery) was calculated. The mass balance is defined as: the sum of the compound recovered from the acceptor chamber and the compound remaining in the donor chamber at the end of the experiment, divided by the initial donor amount. The mass balance should be as high as possible. Criterion: Recovery <50% is insufficient.
To evaluate the integrity of the cell monolayer, Lucifer Yellow permeability was measured in one direction (A to B). The percentage of Lucifer Yellow was calculated in control wells as an estimation of the overall cell membrane integrity. The wells are considered fully acceptable if % Lucifer Yellow is less than 2%.
The experiments for the prodrugs were the same as for the parent compounds exemplified in Table 3a.

[3] = In vivo exposure (plasma and brain) after intravenous bolus injection; details: compound quantified 1c; dose 2 mg/kg intravenous bolus; male Sprague Dawley rats
Method: Brain disposition of test compound was evaluated in male Sprague Dawley rats (standard body weight range). Briefly, discrete (nominal dose: 2 mg/kg, 2 ml/kg) or cassetted (nominal dose: 1 mg/kg/compound, 2 ml/kg) test compounds were administered by intravenous bolus injection (formulated in 10% hydroxypropyl-β-cyclodextrin or 10-20% Captisol, pH=3).
Serial blood samples were collected from a lateral tail vein at designated time points (n=3 per time point) then rats were put under deep isofluorane induced anaesthesia prior to removal of brains (n=3 per time point). Blood samples were stabilized against further metabolism ex vivo by addition of an esterase inhibitor (100 μM diisopropyl fluorophosphate). […]
Seven calibration standards and three QC samples were prepared in plasma and brain homogenate, respectively, in the concentration range 10-10000 ng/mL. […] Study samples with expected concentration above upper limit of quantification were diluted with blank matrix. […]
Samples were analyzed using an AB Sciex API4000 triple quadrupole (TQ) mass spectrometer operated in positive and negative electrospray ionization and MS/MS mode (multiple reaction monitoring, MRM). […] Quantification was performed by linear regression, 1/x2 weighting.
Concentrations of prodrug and drug in plasma and brain were quantified against matrix matched calibration standards.

[4] = test system: time of immobility; test: Forced swim test; assay type: in vivo; details: 3, 10 and 30 mg/kg subcutaneously, 24 h before test; vs vehicle; Wistar Kyoto rats
Method: Adult male Wistar Kyoto rats from Envigo (former Harlan; Blackthorn, UK). Animals are maintained under controlled conditions (21±1° C., 37±1%, 12/12 h light/dark cycles, lights on at 8 a.m.) with food and water available ad libitum. In all studies WKY rats were randomly allocated to a maximum of 5 treatment groups (n=20 per group). […] The dosing of the animals were performed by subcutaneous injection 24 h before test g. The WKY rats were individually placed into a glass cylinder (50 cm height, 20 cm diameter) containing 30 cm of water at 25±1° C. for a 5 min test phase. The test session recorded (using a video camera placed above the cylinder for subsequent behavioural analysis) the time of immobility (s). One-way analysis of variance (ANOVA) was used to detect statistical significance in the FST data. The Fisher least significant difference (LSD) test was used for post hoc analyses. Probability values of P<0.05 were considered as statistically significant. Statistical analyses were performed using SPSS.

[5] = test system: high frequency oscillation; test: Resting state Electroencephalography (rsEEG); assay type: in vivo; details: 20 mg/kg subcutaneously in 10% HPβCD; 30-40 min after dosing; vs vehicle; rats
Method: On the day of surgery, rats (270-300 g) were anesthetized with a 0.25 ml/100 g subcutaneous (SC) injection of 1:1 hypnorm/Dormicum and mounted in a stereotaxic frame (David Kopf Instruments, Tujunga, Calif., USA) with blunt ear bars. Marcain (0.2 ml SC) was injected under the scalp, and gel (Neutral Opthta Eye Gel) put on the eyes to prevent the mucous membrane drying out. Holes were burred in the skull to allow for placement of two depth electrodes (E363-series; PlasticsOne, Roanoke, Va., USA) in left and right pre/infralimbic PFC (AP: 3.0 mm from the bregma suture, Medial-Lateral (ML): +/−0.7 mm from the sagittal suture and DV: 3.0 mm from the dura) and thalamus (AP: −2.8 mm from the bregma suture, ML: +0.7 mm from the sagittal suture and DV: 4.4 mm from the dura) and three screw electrodes at vertex (AP: −2 mm from the bregma suture, ML: +2.0 mm from the sagittal suture), a reference electrode (AP: +8.0 mm and ML: −2.0 mm), and a ground electrode (AP: −5 mm, ML: +5 mm). […] Animal bodyweights were recorded daily. […]
The development of the locomotive state-detection algorithm and the state-specific pharmaco-EEG analyses were carried out in MATLAB R2017a (The MathWorks, Inc., Natick, Mass., USA) using functions from the sigTOOL toolbox. Significant differences between drug-treated animals and vehicle were assessed according to Turkey's honest significant difference.

[6] = test system: tonic hind limb extensor seizure; test: Maximal Electro Shock Threshold (MEST); assay type: in vivo; details: 3, 10 and 30 mg/kg subcutaneously, 30 min before test; vs vehicle 10% HPβCD; rats
Text: Naïve rats were acclimatised to the procedure room in their home cages, with food and water available ad libitum. All rats were weighed at the beginning of the study and randomly assigned to treatment groups. […] Rats were individually assessed for the production of a tonic hind limb extensor seizure using a Hugo Sachs Electronik stimulator, which delivered an adjustable constant current (1-300 mA) of 0.3 seconds duration via corneal electrodes. The stimulus intensity was varied, from a typical baseline of 25 mA, by an ‘up and down’ method of shock titration. […] This procedure continued for all rats within a treatment group. […] Significant differences between drug-treated animals and vehicle were assessed according to Litchfield and Wilcoxon (Litchfield J, Wilcoxon F. A simplified method for evaluating dose-effect experiments. J Pharmacol Exp Ther. 1949; 96(1): 99-113).

SMILES: O=C(O)C(=Cc1c(C(=O)O)[nH]c2cc(Cl)cc(Cl)c12)c1ccccc1 [[3H]-MDL-105,519]
- pKd [1]: 8.89

- Papp A→B at 60 min, 0.5 µM [2]: 18.4 ×10⁻⁶ cm/s
- Total Brain concentration (ng/mL) 30 min post dose [3]: BLOQ
SMILES: Cc1ccnc2cc(C(=O)NC[C@@H](N)C(=O)OC(C)C)sc12 [Compound 2f, Isopropyl (R)-2-amino-3-(7-methylthieno[3,2-b]pyridine-2-carboxamido)propanoate]

SMILES: COC(=O)[C@H](N)CNC(=O)c1cc2nccc(C)c2s1 [Compound 2c, Methyl (R)-2-amino-3-(7-methylthieno[3,2-b]pyridine-2-carboxamido)propanoate]
- time of immobility in forced swim test [4]: significant effects in time of immobility at the 30 mg/kg dose
- effects in resting state Electroencephalography (high frequency oscillation, baseline-normalized power) [5]: significant effects in high frequency oscillation; also recorded: significant effects in resting state Electroencephalography
- effects on the maximal electro shock threshold (seizure threshold CC50 current) [6]: dose dependent effects

— patent publication US11358971B2, “Prodrugs of modulators of the NMDA receptor” (H. Lundbeck A/S, priority 2019, dated 2022)
